IC50 data for 29 compounds are collected here from patent US20220144812A1, “QUINOLINE DERIVATIVES AND THEIR USE FOR THE TREATMENT OF CANCER” (Epizyme, Inc., priority 2019, published 2022).

The pIC50 is the IC50 on a negative log10 scale, so that one unit is a factor of ten.

In one assay the target is T1, CREBBP (1084-1701) (Homo sapiens, UniProt Q92793).
T1 construct: measured in the following biochemical assay using CREBBP (1084-1701); purchased
Put plainly: Biochemical assay for CREBBP (1084-1701), SAMDI. To be noted: SAMDI, read-out: CREBBP Biochemistry IC50. Put shortly: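 CREBBP (1084-1701) preincubated with compound 30 min at RT, then substrate mix (biotin-H3 11-25 K14R/K23R peptide, acetyl-CoA) added for 30 min at RT. Reaction stopped with formic acid, neutralised with sodium bicarbonate. Peptide acetylation read by SAMDI mass spectrometry to derive IC50.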

A further assay has as its target T2, EP300 (P300(1048-1664)) (Homo sapiens, UniProt Q09472).
T2 construct: P300(1048-1664)
T2 sequence (Q09472 1048-1664): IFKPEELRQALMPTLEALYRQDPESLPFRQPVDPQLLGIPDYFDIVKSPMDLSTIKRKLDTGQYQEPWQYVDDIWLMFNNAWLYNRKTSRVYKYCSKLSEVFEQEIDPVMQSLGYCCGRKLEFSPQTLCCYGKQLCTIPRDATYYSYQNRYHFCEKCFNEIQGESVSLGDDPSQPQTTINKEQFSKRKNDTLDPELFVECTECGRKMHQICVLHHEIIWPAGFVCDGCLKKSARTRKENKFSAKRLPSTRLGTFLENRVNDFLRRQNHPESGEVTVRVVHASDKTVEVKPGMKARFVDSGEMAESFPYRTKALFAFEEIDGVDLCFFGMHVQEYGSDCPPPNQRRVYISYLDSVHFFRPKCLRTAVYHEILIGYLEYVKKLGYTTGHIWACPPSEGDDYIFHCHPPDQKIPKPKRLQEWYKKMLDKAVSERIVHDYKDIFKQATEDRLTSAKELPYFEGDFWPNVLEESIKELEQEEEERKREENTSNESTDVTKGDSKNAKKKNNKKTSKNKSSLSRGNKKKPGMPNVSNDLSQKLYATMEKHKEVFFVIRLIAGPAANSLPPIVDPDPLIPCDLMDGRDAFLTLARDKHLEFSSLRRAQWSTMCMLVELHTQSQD
Put plainly: Biochemical assay for EP300, SAMDI. Conditions: EP300, SAMDI; read-out: EP300 Biochemistry IC50. The text has this:
The following example describes materials and methods relating to a biochemical assay for EP300. IC50 values (micromolar (μM)) are summarized in Table 1, Table 2, and Table 3 under the column labeled: “EP300 Biochemistry IC50 (micromolar).”

The subject of another assay is 647V cells. Description: High throughput proliferation (HTP) assay. Type of assay: cell-based. To be noted: high throughput proliferation, read-out: CREBBP HTP IC50. Put shortly:
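Exponentially growing 647V cells in DMEM with 15% FBS were treated in triplicate with increasing compound concentrations at 37° C, 5% CO2. Viable cell number was read by CellTiter-Glo luminescence on day 7; IC50 in micromolar.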

In assay [1] the test system is H3K18Ac in HB-CLS-2 cells. Description: H3K18AC in-cell western (ICW) assay. To be noted: H3K18Ac in-cell western; read-out: CREBBP ICW IC50. Type of assay: cell-based. Put shortly:
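HB-CLS-2 cells seeded 16–24 hours before 2 hr compound treatment at 37° C, 5% CO2, then methanol-fixed. H3K18Ac detected with rabbit monoclonal primary (overnight, 4° C) and 800CW anti-rabbit secondary; DRAQ5 stained DNA. Plates imaged at 700 and 800 nm for integrated intensity; IC50 in μM.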

pIC50: −log10 of the molar value. Like-named read-outs stand apart in the source and are kept apart here.

T1 sequence (Q92793 1084-1701): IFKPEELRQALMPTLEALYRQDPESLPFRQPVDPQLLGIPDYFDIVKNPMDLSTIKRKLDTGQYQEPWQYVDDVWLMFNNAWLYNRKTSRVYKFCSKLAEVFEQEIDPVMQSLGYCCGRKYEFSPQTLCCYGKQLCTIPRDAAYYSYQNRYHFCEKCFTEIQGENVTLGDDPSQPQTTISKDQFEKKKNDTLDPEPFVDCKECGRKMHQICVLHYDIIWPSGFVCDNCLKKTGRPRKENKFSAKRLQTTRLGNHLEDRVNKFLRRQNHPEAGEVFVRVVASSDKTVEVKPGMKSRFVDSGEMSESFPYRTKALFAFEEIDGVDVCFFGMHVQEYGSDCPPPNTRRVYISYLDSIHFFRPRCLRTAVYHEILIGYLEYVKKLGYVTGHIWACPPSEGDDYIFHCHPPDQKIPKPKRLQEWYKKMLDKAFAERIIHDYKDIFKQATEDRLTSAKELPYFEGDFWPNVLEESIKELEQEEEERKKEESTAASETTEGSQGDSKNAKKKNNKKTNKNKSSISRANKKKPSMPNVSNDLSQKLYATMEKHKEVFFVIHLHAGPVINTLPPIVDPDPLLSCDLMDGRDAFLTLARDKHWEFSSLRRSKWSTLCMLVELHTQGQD

Regarding `CCn1ncc(CN(C)C(=O)c2nc(-c3ccc(OCCC(=O)NC)c(OC)c3)nc3ccc(Cl)cc23)c1C` [Compound 137], the pIC50 at CREBBP (1084-1701) is 5.08; on EP300 (P300(1048-1664)), 5.11; in the assay with 647V cells (Homo sapiens, 647-V), 5.33; in assay [1], 5.28.
As to `CCn1ncc(CN(C)C(=O)c2cc(-c3csc(CNC)n3)nc3ccc(Cl)cc23)c1C` [Compound 138], the pIC50 is 4.92 at CREBBP (1084-1701), 5.28 on EP300 (P300(1048-1664)), 5.08 in the assay on 647V cells and 5.23 in assay [1].
For the compound `CCn1ncc(CN(C)C(=O)c2nc(-c3ccc(CN4CCNCC4)c(OC)c3)nc3ccc(Cl)cc23)c1C` [Compound 139], the pIC50 on CREBBP (1084-1701) is 5.17; at EP300 (P300(1048-1664)), 5.13; in the assay with 647V cells, 5.12; in assay [1] it was 5.23.
Regarding `CCn1ncc(CN(C)C(=O)c2nc(-c3ccc(OCCNC(=O)OC(C)(C)C)c(C)c3)nc3ccc(Cl)cc23)c1C` [Compound 143], the negative-log IC50 (pIC50) was 6.89 at CREBBP (1084-1701), 5.09 on EP300 (P300(1048-1664)), 5.37 in the assay with 647V cells and 5.19 in assay [1].
Consider `CCn1ncc(CN(C)C(=O)c2nc(-c3cn(CCNC)nc3C)nc3ccc(Cl)cc23)c1C` [Compound 144], for which the pIC50 on CREBBP (1084-1701) is 5.27; at EP300 (P300(1048-1664)) it was 5.05; in the assay with 647V cells (Homo sapiens, 647-V) it was 5.48; in assay [1], 5.08.
Take `CCn1ncc(CN(C)C(=O)c2nc(-c3cccc(-c4ccn[nH]4)c3)nc3ccc(Cl)cc23)c1C` [Compound 145]: the pIC50 on CREBBP (1084-1701) was 5.55; on EP300 (P300(1048-1664)) it was 5.72; in the assay on 647V cells it was 5.00; in assay [1] it was 5.19.
On to `CCn1ncc(CN(C)C(=O)c2cc(-c3cnc(CN(C)C)[nH]3)nc3ccc(Cl)cc23)c1C` [Compound 146], for which the pIC50 on CREBBP (1084-1701) is 5.40; on EP300 (P300(1048-1664)), 5.64; with 647V cells (Homo sapiens, 647-V) it was 5.00; in assay [1], 5.19.
`CCn1ncc(CN(C)C(=O)c2nc(-c3ccc(OCCCNC(=O)OC(C)(C)C)c(C)c3)nc3ccc(Cl)cc23)c1C` [Compound 147]: the pIC50 at CREBBP (1084-1701) was 6.33; at EP300 (P300(1048-1664)), 5.10; in the assay on 647V cells, 5.51; in assay [1], 5.15.
`CCn1ncc(CN(C)C(=O)c2nc(-c3ccc(OCCN(C)C(=O)OC(C)(C)C)c(OC)c3)nc3ccc(Cl)cc23)c1C` [Compound 148]: the negative-log IC50 (pIC50) on CREBBP (1084-1701) was 5.12; on EP300 (P300(1048-1664)) it was 4.96; in the assay with 647V cells (Homo sapiens, 647-V), 5.41; in assay [1] it was 5.14.
On to `CCn1ncc(CN(C)C(=O)c2cc(-c3cnc(CNC)[nH]3)nc3ccc(Cl)cc23)c1C` [Compound 149], for which the pIC50 at CREBBP (1084-1701) is 4.85; on EP300 (P300(1048-1664)), 5.17; in the assay on 647V cells (Homo sapiens, 647-V), 5.04; in assay [1], 5.11.
As to `CCn1ncc(CN(C)C(=O)c2nc(-c3ccc(OCCN(C)C(=O)OC(C)(C)C)c(Cl)c3)nc3ccc(Cl)cc23)c1C` [Compound 151], the pIC50 on CREBBP (1084-1701) is 5.66; at EP300 (P300(1048-1664)), 5.55; in the assay with 647V cells (Homo sapiens, 647-V), 5.49; in assay [1], 5.06.
Turning to `CCn1ncc(CN(C)C(=O)c2nc(-c3ccc(OCCNC)c(Cl)c3)nc3ccc(OC)cc23)c1C` [Compound 152], the pIC50 on CREBBP (1084-1701) was 5.44; on EP300 (P300(1048-1664)), 5.44; in the assay on 647V cells (Homo sapiens, 647-V) it was 5.80; in assay [1], 5.05.
As for `CCn1ncc(CN(C)C(=O)c2nc(-c3ccc(NC4CCNCC4)cn3)nc3ccc(Cl)cc23)c1C` [Compound 153], the pIC50 at CREBBP (1084-1701) was 6.41; on EP300 (P300(1048-1664)), 6.46; in the assay with 647V cells, 5.31; in assay [1], 5.05.
Consider `CCn1ncc(CN(C)C(=O)c2nc(-c3ccnc(NC)c3)nc3ccc(Cl)cc23)c1C` [Compound 155], for which the pIC50 was 4.46 at CREBBP (1084-1701); 4.59 on EP300 (P300(1048-1664)); 5.30 with 647V cells (Homo sapiens, 647-V); 5.03 in assay [1].
For the compound `CCn1ncc(CN(C)C(=O)c2nc(-c3ccc(C(=O)NC)cc3)nc3ccc(Cl)cc23)c1C` [Compound 156], the pIC50 was 4.47 at CREBBP (1084-1701); 4.89 on EP300 (P300(1048-1664)); 5.02 in the assay on 647V cells (Homo sapiens, 647-V); 5.02 in assay [1].
With `CCCOc1ccc(-c2nc(C(=O)N(C)Cc3cnn(CC)c3C)c3cc(Cl)ccc3n2)cc1Cl` [Compound 157], the negative logarithm of the IC50 (pIC50) is 5.49 on CREBBP (1084-1701), 5.55 at EP300 (P300(1048-1664)), 5.25 in the assay on 647V cells and 5.02 in assay [1].
For `CCn1ncc(CN(C)C(=O)c2nc(N3CCc4[nH]c(C)nc4C3)nc3ccc(Cl)cc23)c1C` [Compound 159], the pIC50 is 4.70 at CREBBP (1084-1701); 5.11 at EP300 (P300(1048-1664)); 5.00 in the assay with 647V cells (Homo sapiens, 647-V); 5.00 in assay [1].
Turning to `CCn1ncc(CN(C)C(=O)c2nc(-c3cc(C(=O)NC4CCN(C)CC4)nn3C)nc3ccc(Cl)cc23)c1C` [Compound 160], the pIC50 on CREBBP (1084-1701) is 4.49; at EP300 (P300(1048-1664)), 4.70; in the assay with 647V cells (Homo sapiens, 647-V), 5.29; in assay [1], 4.96.
In the case of `CCn1ncc(CN(C)C(=O)c2nc(N3CCc4cn[nH]c4C3)nc3ccc(Cl)cc23)c1C` [Compound 161], the negative logarithm of the IC50 (pIC50) on CREBBP (1084-1701) was 4.77; at EP300 (P300(1048-1664)) it was 5.21; with 647V cells (Homo sapiens, 647-V), 4.96; in assay [1], 4.96.
On to `CCn1ncc(CN(C)C(=O)c2nc(-c3cc(C(=O)NCCCN4CCCC4)n(Cc4ccc(OC)cc4)n3)nc3ccc(Cl)cc23)c1C` [Compound 163], for which the pIC50 is 4.21 on CREBBP (1084-1701); 4.46 on EP300 (P300(1048-1664)); 5.57 in the assay on 647V cells (Homo sapiens, 647-V); 4.92 in assay [1].
As to `CCn1ncc(CN(C)C(=O)c2nc(-c3ccc(C(=O)NC)c(C)c3)nc3ccc(Cl)cc23)c1C` [Compound 164], the pIC50 was 4.28 at CREBBP (1084-1701); 4.52 at EP300 (P300(1048-1664)); 5.01 with 647V cells (Homo sapiens, 647-V); 4.89 in assay [1].
Turning to `CCn1ncc(CN(C)C(=O)c2cc(-c3ccc(OCCCO)cn3)nc3ccc(Cl)cc23)c1C` [Compound 166], the negative-log IC50 (pIC50) at CREBBP (1084-1701) was 4.55; at EP300 (P300(1048-1664)) it was 4.82; in the assay on 647V cells (Homo sapiens, 647-V), 4.96; in assay [1], 4.89.
For `CCn1ncc(CN(C)C(=O)c2nc(N3CCc4[nH]cnc4C3)nc3ccc(Cl)cc23)c1C` [Compound 167] the same measures were 4.74, 5.10, 4.96 and 4.89.
As to `CCn1ncc(CN(C)C(=O)c2cc(-n3cc4c(n3)CNCC4)nc3ccc(Cl)cc23)c1C` [Compound 168], the negative-log IC50 (pIC50) was 4.74 on CREBBP (1084-1701), 5.24 on EP300 (P300(1048-1664)), 4.74 in the assay with 647V cells and 4.89 in assay [1].
Consider `CCn1ncc(CN(C)C(=O)c2nc(-c3cc(C(=O)NCCN4CCCC4)on3)nc3ccc(Cl)cc23)c1C` [Compound 169], for which the pIC50 was 5.08 at CREBBP (1084-1701); 4.82 on EP300 (P300(1048-1664)); 5.17 in the assay on 647V cells (Homo sapiens, 647-V); 4.89 in assay [1].
For `CCn1ncc(CN(C)C(=O)c2nc(-c3cn(C)cn3)nc3ccc(Cl)cc23)c1C` [Compound 170] the same measures were 4.24, 4.89, 5.16 and 4.85.
Take `CCn1ncc(CN(C)C(=O)c2nc(-c3ccc(-c4ccn[nH]4)cc3)nc3ccc(Cl)cc23)c1C` [Compound 171]: the pIC50 is 5.07 on CREBBP (1084-1701); 5.44 on EP300 (P300(1048-1664)); 5.11 in the assay on 647V cells (Homo sapiens, 647-V); 4.85 in assay [1].
For `CCn1ncc(CN(C)C(=O)c2nc(-c3ccc(OCCO)cn3)nc3ccc(Cl)cc23)c1C` [Compound 173] the same measures were 4.77, 5.11, 4.96 and 4.85.
Consider `CCn1ncc(CN(C)C(=O)c2nc(-c3cc(CN(C)Cc4ccc(OC)cc4)nn3C)nc3ccc(Cl)cc23)c1C` [Compound 176], for which the pIC50 was 4.07 at CREBBP (1084-1701); 4.36 on EP300 (P300(1048-1664)); 5.09 in the assay with 647V cells (Homo sapiens, 647-V); 4.80 in assay [1].
